Source: ChEMBL document CHEMBL1833803, “Discovery of 1-amino-5H-pyrido[4,3-b]indol-4-carboxamide inhibitors of Janus kinase 2 (JAK2) for the treatment of myeloproliferative disorders” (J Med Chem, 2011)
Converted amounts (≈) assume the structure as drawn.

Legend:
[1] = target: T1, Tyrosine-protein kinase JAK3 (Homo sapiens, UniProt P52333); assay: Inhibition of JAK3 using biotin-EQEDEPEGDYFEWLE- NH2 as substrate
T1 sequence (P52333 whole entry): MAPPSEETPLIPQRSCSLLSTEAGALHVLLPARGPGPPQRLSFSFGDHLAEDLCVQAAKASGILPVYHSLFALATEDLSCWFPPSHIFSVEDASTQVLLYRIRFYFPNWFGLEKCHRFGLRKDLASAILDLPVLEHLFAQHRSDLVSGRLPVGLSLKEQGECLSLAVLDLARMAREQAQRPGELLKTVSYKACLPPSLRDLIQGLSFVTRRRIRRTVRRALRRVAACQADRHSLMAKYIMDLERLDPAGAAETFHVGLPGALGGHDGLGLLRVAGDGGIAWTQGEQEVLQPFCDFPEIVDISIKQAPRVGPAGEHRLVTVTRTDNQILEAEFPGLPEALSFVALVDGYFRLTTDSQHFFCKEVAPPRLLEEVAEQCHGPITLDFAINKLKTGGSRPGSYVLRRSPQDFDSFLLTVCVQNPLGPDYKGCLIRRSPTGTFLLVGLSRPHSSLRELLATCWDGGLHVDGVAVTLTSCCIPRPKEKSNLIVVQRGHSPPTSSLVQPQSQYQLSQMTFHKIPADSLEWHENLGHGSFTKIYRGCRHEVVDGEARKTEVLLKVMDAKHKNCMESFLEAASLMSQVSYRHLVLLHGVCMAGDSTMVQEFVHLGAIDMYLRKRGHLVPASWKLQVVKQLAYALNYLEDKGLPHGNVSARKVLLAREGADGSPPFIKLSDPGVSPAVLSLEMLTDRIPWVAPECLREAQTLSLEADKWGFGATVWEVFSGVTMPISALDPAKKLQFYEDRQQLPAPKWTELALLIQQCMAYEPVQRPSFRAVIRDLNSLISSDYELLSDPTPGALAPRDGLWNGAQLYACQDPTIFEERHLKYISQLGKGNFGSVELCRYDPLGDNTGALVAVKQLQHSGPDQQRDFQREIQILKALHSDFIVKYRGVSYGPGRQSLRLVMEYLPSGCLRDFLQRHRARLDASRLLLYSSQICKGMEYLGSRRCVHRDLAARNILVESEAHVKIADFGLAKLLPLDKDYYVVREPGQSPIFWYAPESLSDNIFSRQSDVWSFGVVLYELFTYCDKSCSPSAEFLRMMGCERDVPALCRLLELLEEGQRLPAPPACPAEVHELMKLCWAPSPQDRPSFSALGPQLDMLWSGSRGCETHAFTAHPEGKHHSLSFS

[2] = target: T2, Tyrosine-protein kinase JAK2 (Homo sapiens, UniProt O60674); assay: Inhibition of JAK2 using biotin-EQEDEPEGDYFEWLE- NH2 as substrate
[3] = Selectivity ratio of IC50 for JAK3 to IC50 for JAK2
CYP3A4 = CYP3A4 (Homo sapiens, UniProt P08684); assay: Inhibition of CYP3A4 at 10 uM; assay type: ADME
[4] = target: T2, Tyrosine-protein kinase JAK2; assay: Inhibition of JAK2-mediated STAT5 phosphorylation in human HEL 92.1.7 irf1-bla cells; assay type: cell-based
[5] = target: Voltage-gated inwardly rectifying potassium channel KCNH2 (Homo sapiens, UniProt Q12809); assay: Inhibition of human hERG
[6] = Clearance in rat at 1 mg/kg, iv; assay type: ADME, organism-based; set-up: dose 1 mg/kg, route intravenous; conditions: in vivo
CYP2C9 = CYP2C9 (Homo sapiens, UniProt P11712); assay: Inhibition of CYP2C9 at 10 uM; assay type: ADME
[7] = Bioavailability in rat at 1 mg/kg, iv; assay type: ADME, organism-based; conditions: in vivo
[8] = Half life in rat at 1 mg/kg, iv; assay type: ADME, organism-based; set-up: dose 1 mg/kg, route intravenous; conditions: in vivo
[9] = target: T2, Tyrosine-protein kinase JAK2; assay: Inhibition of JAK2
[10] = Oral bioavailability in rat at 2 mg/kg; assay type: ADME, organism-based; conditions: in vivo
[11] = target: T2, Tyrosine-protein kinase JAK2; assay: Competitive inhibition of JAK2 in the presence of 2 mM ATP
[12] = Aqueous solubility of the compound; assay type: physicochemical; conditions: buffer
[13] = target: T1, Tyrosine-protein kinase JAK3; assay: Inhibition of JAK3
[14] = target: T2, Tyrosine-protein kinase JAK2; assay: Competitive inhibition of JAK2 in the presence of 15 uM ATP
[15] = Lipophilicity, log D of the compound at pH 7.4; assay type: physicochemical; conditions: buffer
Mus musculus [16] = species: Mus musculus; assay: Prevention of darbepoetin-induced increase in spleen weight in C57/BL6 mouse PV model; assay type: functional, organism-based; conditions: C57Bl/6
[17] = Plasma clearance in dog at 0.5 mg/kg, iv; assay type: ADME, organism-based, Canis lupus familiaris; set-up: dose 0.5 mg/kg, route intravenous
Rattus norvegicus [18] = assay: Dose normalized AUC in rat at 1 mg/kg, iv; assay type: ADME, organism-based; set-up: dose 1 mg/kg, route intravenous; conditions: in vivo
Cytochrome P450 2C9 = Cytochrome P450 2C9 (Homo sapiens, UniProt P11712); assay: Inhibition of CYP2C9; assay type: ADME
Cytochrome P450 3A4 = Cytochrome P450 3A4 (Homo sapiens, UniProt P08684); assay: Inhibition of CYP3A4; assay type: ADME
[19] = target: T3, Tyrosine-protein kinase JAK2 (Homo sapiens, UniProt O60674, V617F); assay: Inhibition of JAK2 V617F mutant
Rhesus monkey [20] = assay: Dose normalized AUC in monkey at 1 mg/kg, po; assay type: ADME, organism-based, Macaca mulatta; set-up: dose 1 mg/kg, route oral; conditions: in vivo
[21] = Plasma clearance in monkey at 0.5 mg/kg, iv; assay type: ADME, organism-based, Macaca mulatta; set-up: dose 0.5 mg/kg, route intravenous; conditions: rhesus monkey
[22] = Half life in dog at 0.5 mg/kg, iv; assay type: ADME, organism-based, Canis lupus familiaris; set-up: dose 0.5 mg/kg, route intravenous; conditions: in vivo
Mus musculus [23] = assay: Reduction in pSTAT5 concentration in po dosed darbepoetin-stimulated C57B1/6 mouse
[24] = Tmax in rat at 2 mg/kg, po; assay type: ADME, organism-based; set-up: dose 2 mg/kg, route oral; conditions: in vivo
[25] = Half life in monkey at 0.5 mg/kg, iv; assay type: ADME, organism-based, Macaca mulatta; set-up: dose 0.5 mg/kg, route intravenous; conditions: rhesus monkey, in vivo
[26] = target: Voltage-dependent L-type calcium channel subunit alpha-1C (Rattus norvegicus, UniProt P22002); assay: Inhibition of rat CaV1.2
Mus musculus [27] = species: Mus musculus; assay: Prevention of darbepoetin-induced elevation of hematocrit in C57/BL6 mouse PV model; assay type: functional, organism-based; conditions: C57Bl/6
[28] = Volume of distribution at steady state in rat at 1 mg/kg, iv; assay type: ADME, organism-based; set-up: dose 1 mg/kg, route intravenous; conditions: in vivo, read-out: Vdss
[29] = Cmax in monkey at 1 mg/kg, po; assay type: ADME, organism-based, Macaca mulatta; set-up: dose 1 mg/kg, route oral; conditions: rhesus monkey, in vivo
[30] = target: Sodium channel protein type 5 subunit alpha (Homo sapiens, UniProt Q14524); assay: Inhibition of NaV1.5
Canis familiaris [31] = assay: Dose normalized AUC in dog at 1 mg/kg, po; assay type: ADME, organism-based, Canis lupus familiaris; set-up: dose 1 mg/kg, route oral; conditions: in vivo
Rattus norvegicus [32] = assay: Dose normalized AUC in rat at 2 mg/kg, po; assay type: ADME, organism-based; set-up: dose 2 mg/kg, route oral; conditions: in vivo
[33] = target: Potassium voltage-gated channel subfamily E member 1 (Homo sapiens, UniProt P15382); assay: Inhibition of Iks channel
Cytochrome P450 2D6 = Cytochrome P450 2D6 (Homo sapiens, UniProt P10635); assay: Inhibition of CYP2D6; assay type: ADME
[34] = Cmax in rat at 2 mg/kg, po; assay type: ADME, organism-based; set-up: dose 2 mg/kg, route oral; conditions: in vivo
[35] = Cmax in dog at 1 mg/kg, po; assay type: ADME, organism-based, Canis lupus familiaris; set-up: dose 1 mg/kg, route oral; conditions: in vivo
[36] = Oral bioavailability in monkey at 1 mg/kg; assay type: ADME, organism-based, Macaca mulatta; conditions: rhesus monkey, in vivo
[37] = target: T3, Tyrosine-protein kinase JAK2; assay: Inhibition of JAK2 V617F mutant-mediated STAT5 phosphorylation in mouse BAF3 cells; assay type: cell-based
Canis familiaris [38] = assay: Dose normalized AUC in dog at 0.5 mg/kg, iv; assay type: ADME, organism-based, Canis lupus familiaris; set-up: dose 0.5 mg/kg, route intravenous; conditions: in vivo
Rhesus monkey [39] = assay: Dose normalized AUC in monkey at 0.5 mg/kg, iv; assay type: ADME, organism-based, Macaca mulatta; set-up: dose 0.5 mg/kg, route intravenous; conditions: in vivo
[40] = Oral bioavailability in dog at 1 mg/kg; assay type: ADME, organism-based, Canis lupus familiaris; conditions: in vivo
[41] = Tmax in monkey at 1 mg/kg, po; assay type: ADME, organism-based, Macaca mulatta; set-up: dose 1 mg/kg, route oral; conditions: rhesus monkey, in vivo
[42] = Volume of distribution at steady state in monkey at 0.5 mg/kg, iv; assay type: ADME, organism-based, Macaca mulatta; set-up: dose 0.5 mg/kg, route intravenous; conditions: rhesus monkey, in vivo, read-out: Vdss
[43] = Volume of distribution at steady state in dog at 0.5 mg/kg, iv; assay type: ADME, organism-based, Canis lupus familiaris; set-up: dose 0.5 mg/kg, route intravenous; conditions: in vivo, read-out: Vdss
[44] = Plasma clearance in rat at 1 mg/kg, iv; assay type: ADME, organism-based; set-up: dose 1 mg/kg, route intravenous
[45] = Tmax in dog at 1 mg/kg, po; assay type: ADME, organism-based, Canis lupus familiaris; set-up: dose 1 mg/kg, route oral; conditions: in vivo
[46] = Plasma clearance in rat at 1 mg/kg, iv and 2 mg/kg, po; assay type: ADME, organism-based

T2 sequence (O60674 whole entry): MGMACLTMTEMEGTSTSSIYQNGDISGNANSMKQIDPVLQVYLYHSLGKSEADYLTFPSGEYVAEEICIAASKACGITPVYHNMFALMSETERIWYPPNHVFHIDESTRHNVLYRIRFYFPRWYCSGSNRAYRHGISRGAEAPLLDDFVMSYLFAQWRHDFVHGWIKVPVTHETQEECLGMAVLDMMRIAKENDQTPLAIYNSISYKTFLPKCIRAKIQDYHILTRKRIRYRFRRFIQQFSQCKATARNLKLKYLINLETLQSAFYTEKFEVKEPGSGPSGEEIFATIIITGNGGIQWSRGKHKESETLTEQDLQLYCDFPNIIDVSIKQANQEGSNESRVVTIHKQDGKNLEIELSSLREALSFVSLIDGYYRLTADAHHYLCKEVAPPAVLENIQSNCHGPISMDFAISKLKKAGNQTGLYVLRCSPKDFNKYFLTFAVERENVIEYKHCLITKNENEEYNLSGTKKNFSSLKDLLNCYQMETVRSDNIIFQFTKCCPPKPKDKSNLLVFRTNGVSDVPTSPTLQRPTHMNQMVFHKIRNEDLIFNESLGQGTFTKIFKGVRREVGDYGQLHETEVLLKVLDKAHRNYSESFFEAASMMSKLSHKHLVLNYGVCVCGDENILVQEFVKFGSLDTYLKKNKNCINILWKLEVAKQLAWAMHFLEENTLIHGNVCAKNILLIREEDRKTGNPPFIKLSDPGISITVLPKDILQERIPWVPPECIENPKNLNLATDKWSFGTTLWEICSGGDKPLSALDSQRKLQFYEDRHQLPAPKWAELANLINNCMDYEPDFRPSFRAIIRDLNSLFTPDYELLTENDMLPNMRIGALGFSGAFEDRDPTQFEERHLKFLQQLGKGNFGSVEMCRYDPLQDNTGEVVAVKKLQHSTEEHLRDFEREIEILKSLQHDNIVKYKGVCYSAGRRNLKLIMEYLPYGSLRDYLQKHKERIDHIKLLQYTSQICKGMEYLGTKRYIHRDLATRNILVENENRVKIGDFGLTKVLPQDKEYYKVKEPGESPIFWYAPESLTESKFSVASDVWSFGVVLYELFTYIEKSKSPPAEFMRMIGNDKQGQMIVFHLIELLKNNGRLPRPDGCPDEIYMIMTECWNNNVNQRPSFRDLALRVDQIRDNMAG
Sequence of CYP3A4 (P08684 whole entry): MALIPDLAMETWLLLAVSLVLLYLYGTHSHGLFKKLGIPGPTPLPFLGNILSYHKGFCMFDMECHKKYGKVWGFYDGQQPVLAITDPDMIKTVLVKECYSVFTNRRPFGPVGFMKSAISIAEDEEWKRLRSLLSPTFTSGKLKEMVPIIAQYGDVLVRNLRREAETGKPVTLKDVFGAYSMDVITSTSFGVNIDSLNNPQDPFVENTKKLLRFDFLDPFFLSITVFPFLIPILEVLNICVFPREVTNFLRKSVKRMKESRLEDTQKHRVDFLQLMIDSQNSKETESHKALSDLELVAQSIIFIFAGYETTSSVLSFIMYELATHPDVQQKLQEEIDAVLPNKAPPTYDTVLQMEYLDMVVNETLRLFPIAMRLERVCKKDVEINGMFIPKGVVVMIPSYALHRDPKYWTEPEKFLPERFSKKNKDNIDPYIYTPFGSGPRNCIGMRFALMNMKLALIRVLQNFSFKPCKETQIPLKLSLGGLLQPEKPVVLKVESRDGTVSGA
Sequence of CYP2C9 (P11712 whole entry): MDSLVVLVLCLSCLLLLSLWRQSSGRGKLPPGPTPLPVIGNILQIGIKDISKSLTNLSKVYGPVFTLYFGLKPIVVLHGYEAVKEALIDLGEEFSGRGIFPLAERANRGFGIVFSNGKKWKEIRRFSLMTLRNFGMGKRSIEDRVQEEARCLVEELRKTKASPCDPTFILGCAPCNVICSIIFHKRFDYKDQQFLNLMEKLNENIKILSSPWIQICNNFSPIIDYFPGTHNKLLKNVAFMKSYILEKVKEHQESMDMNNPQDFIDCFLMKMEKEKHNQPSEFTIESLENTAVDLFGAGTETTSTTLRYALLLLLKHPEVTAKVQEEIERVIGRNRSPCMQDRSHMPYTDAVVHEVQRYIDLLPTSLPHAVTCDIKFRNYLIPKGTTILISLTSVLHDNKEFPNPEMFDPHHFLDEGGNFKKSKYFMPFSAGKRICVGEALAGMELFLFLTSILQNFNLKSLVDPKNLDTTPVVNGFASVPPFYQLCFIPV
T3 sequence (O60674 whole entry V617F): as the sequence (O60674 whole entry) above, with V617F counted along it
Sequence of Sodium channel protein type 5 subunit alpha (Q14524 whole entry): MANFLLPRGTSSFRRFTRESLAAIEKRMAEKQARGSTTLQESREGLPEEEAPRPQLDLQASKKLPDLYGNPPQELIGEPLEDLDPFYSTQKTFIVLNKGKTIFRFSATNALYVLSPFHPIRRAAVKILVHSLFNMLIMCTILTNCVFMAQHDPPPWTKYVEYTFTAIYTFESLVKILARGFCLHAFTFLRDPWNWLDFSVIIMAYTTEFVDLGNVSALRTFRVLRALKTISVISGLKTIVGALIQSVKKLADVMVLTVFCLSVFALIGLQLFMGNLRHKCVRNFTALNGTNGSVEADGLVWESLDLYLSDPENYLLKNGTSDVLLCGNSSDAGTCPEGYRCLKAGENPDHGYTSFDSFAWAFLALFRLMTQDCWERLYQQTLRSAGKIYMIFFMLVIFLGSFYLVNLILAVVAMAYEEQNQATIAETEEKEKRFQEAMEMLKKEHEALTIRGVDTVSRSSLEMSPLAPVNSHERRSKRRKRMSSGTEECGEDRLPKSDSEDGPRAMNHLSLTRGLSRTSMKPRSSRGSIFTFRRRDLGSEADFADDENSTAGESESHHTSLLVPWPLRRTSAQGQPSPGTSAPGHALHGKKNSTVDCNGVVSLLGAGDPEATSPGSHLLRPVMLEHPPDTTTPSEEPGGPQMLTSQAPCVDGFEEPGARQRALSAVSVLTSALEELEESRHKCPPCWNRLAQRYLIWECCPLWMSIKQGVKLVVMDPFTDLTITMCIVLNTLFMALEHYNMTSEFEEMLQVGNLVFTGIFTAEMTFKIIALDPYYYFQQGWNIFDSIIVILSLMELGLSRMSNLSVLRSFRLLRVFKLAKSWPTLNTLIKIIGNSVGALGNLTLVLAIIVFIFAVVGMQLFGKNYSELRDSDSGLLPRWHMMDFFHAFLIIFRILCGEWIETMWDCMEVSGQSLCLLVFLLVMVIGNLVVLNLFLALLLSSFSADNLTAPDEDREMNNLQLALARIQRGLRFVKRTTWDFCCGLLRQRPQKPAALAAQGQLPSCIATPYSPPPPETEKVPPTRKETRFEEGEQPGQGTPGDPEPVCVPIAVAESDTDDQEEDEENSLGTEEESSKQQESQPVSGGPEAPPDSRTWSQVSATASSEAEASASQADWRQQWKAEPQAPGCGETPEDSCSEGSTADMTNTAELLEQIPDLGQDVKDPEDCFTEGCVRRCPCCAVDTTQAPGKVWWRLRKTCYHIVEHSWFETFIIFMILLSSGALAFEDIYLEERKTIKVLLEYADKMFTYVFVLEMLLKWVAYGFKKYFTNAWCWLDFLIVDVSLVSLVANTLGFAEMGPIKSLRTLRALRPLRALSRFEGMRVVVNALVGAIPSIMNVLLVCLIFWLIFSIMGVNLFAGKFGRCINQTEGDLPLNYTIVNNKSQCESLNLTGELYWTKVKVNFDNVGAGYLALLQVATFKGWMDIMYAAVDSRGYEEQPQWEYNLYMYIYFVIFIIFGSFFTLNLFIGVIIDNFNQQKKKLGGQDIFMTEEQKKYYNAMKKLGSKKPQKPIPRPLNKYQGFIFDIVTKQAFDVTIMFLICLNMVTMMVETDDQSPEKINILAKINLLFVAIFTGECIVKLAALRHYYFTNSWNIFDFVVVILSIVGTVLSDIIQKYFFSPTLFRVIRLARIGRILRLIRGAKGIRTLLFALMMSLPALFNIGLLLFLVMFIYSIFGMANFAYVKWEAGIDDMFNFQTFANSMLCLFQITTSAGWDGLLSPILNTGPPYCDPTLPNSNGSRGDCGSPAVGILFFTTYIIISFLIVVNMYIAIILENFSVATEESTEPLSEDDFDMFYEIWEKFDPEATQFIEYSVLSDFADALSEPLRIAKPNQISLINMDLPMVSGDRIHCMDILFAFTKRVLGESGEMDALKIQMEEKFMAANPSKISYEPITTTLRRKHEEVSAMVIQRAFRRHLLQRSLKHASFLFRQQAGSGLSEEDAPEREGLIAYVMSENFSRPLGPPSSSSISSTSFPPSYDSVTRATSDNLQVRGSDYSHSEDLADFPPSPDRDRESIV
Sequence of Cytochrome P450 3A4 (P08684 whole entry): as the sequence (P08684 whole entry) above
Sequence of Cytochrome P450 2C9 (P11712 whole entry): as the sequence (P11712 whole entry) above

Structure (SMILES): NC(=O)c1cnc(NC(C2CC2)C2CC2)c2c1[nH]c1cc(-c3cnc(N)nc3)ccc12
- IC50 [1]: 220 nM
- IC50 [2]: 1 nM
- Ratio IC50 [3]: > 50
- inhibition at 10 µM (CYP3A4): 55%
- IC50 [4]: 29 nM
- IC50 [5]: 8200 nM
- clearance [6]: 21 mL/min/kg
- inhibition at 10 µM (CYP2C9): 35%

Structure (SMILES): Cn1cc(-c2ccc3c(c2)[nH]c2c(C(N)=O)cnc(N[C@H](C4CC4)C(F)(F)F)c23)cn1
- IC50 [1]: 230 nM
- IC50 [2]: 0.4 nM
- bioavailability [7]: 65%
- inhibition at 10 µM (CYP3A4): 48%
- IC50 [4]: 41 nM
- half-life [8]: 4.1 h
- clearance [6]: 14 mL/min/kg
- inhibition at 10 µM (CYP2C9): 66%

Structure (SMILES): CCNc1ncc(C(N)=O)c2[nH]c3ccc(F)cc3c12
- IC50 [9]: 230 nM
- bioavailability [10]: 87%
- IC50 [2]: 230 nM
- IC50 [11]: > 15000 nM
- Ratio IC50 [3]: 30
- solubility [12]: 6 µM (≈ 1.63 µg/mL)
- IC50 [13]: 6800 nM
- IC50 [14]: 230 nM
- logD [15]: 2

Structure (SMILES): NC(=O)c1cnc(N[C@H](C2CC2)C(F)(F)F)c2c1[nH]c1cc(-c3cnc(N)nc3)ccc12
- Activity (Mus musculus [16]): Dose-dependent effect
- clearance [17]: 18 mL/min/kg
- AUC/dose (Rattus norvegicus [18]): 5.3 µM·h/mg/kg
- IC50 (Cytochrome P450 2C9): > 75000 nM
- bioavailability [10]: 67%
- IC50 [2]: 0.8 nM
- IC50 (Cytochrome P450 3A4): > 75000 nM
- IC50 [19]: 0.4 nM
- AUC/dose (Rhesus monkey [20]): 3.4 µM·h/mg/kg
- clearance [21]: 7.4 mL/min/kg
- half-life [22]: 5.2 h
- IC50 (Mus musculus [23]): 1200 nM
- Tmax [24]: 6 h
- inhibition at 10 µM (CYP3A4): 30%
- half-life [25]: 7.3 h
- IC50 [26]: > 30000 nM
- Activity (Mus musculus [27]): Dose-dependent effect
- Vd [28]: 2.5 L/kg
- Cmax [29]: 200 nM
- IC50 [30]: > 30000 nM
- AUC/dose (Canis familiaris [31]): 2.5 µM·h/mg/kg
- AUC/dose (Rattus norvegicus [32]): 3.4 µM·h/mg/kg
- IC50 [33]: > 10000 nM
- IC50 (Cytochrome P450 2D6): > 75000 nM
- Cmax [34]: 600 nM
- Cmax [35]: 300 nM
- IC50 [4]: 25 nM
- half-life [8]: 4.5 h
- bioavailability [36]: 66%
- IC50 [37]: 11 nM
- AUC/dose (Canis familiaris [38]): 2.4 µM·h/mg/kg
- AUC/dose (Rhesus monkey [39]): 5.2 µM·h/mg/kg
- bioavailability [40]: 120%
- Tmax [41]: 6 h
- Vd [42]: 4.7 L/kg
- clearance [6]: 7 mL/min/kg
- Vd [43]: 6.1 L/kg
- inhibition at 10 µM (CYP2C9): 34%
- clearance [44]: 7.4 mL/min/kg
- Tmax [45]: 5.1 h

Structure (SMILES): O=c1[nH]ccc2c1c1cc(F)ccc1n2-c1ccccc1
- IC50 [9]: 1100 nM
- bioavailability [10]: 89%
- Ratio IC50 [3]: 0.7
- IC50 [13]: 720 nM
- clearance [46]: 13 mL/min/kg
- logD [15]: 4.3
